Experimental data: ChEMBL document CHEMBL1201862, “PubChem BioAssay data set” (2004)
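Step 1: Grow cells in 96-well plates. Step 2: Expose to compound for 48 hours at 5 concentrations. Step 3: Interpolate endpoints linearly; if unreached, use highest concentration. Here, GI50 denotes the concentration required for 50% inhibition of growth.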 Calls of active or inactive are those of the source. No stated cut-off is given here; in the data, active = GI50 up to about 1.1 µM and inactive = higher.

How the values were obtained:
Test in all cases: NCI tumour cell line growth inhibition, 48 h
[1] = system: T47D
[2] = system: CAKI-1
[3] = system: COLO 205
[4] = system: SK-MEL-28
[5] = system: M14
[6] = system: Hs-578T
[7] = system: A549
[8] = system: ACHN
[9] = system: MOLT-4
[10] = system: UACC-62
[11] = system: SK-OV-3
[12] = system: RPMI-8226
[13] = system: OVCAR-5
[14] = system: SW-620
[15] = system: HOP-92
[16] = system: NCI/ADR-RES
[17] = system: PC-3
[18] = system: OVCAR-3
[19] = system: MCF7
[20] = system: SK-MEL-2

Measured: GI50

CCOC(=O)c1c(N2CCCC2)[nH]c(=O)c(C(c2ccc(N(C)C)cc2)c2c(O)c(C(=O)OCC)c(N3CCCC3)[nH]c2=O)c1O
inactive: [1] > 100 µM | [2] > 100 µM | [3] > 100 µM | [4] > 100 µM | [5] > 100 µM | [6] > 100 µM | [7] > 100 µM | [8] > 100 µM | [9] > 100 µM | [10] > 100 µM | [11] > 100 µM | [12] > 100 µM | [13] > 100 µM | [14] > 100 µM | [15] > 100 µM | [16] > 100 µM | [17] > 100 µM | [18] > 100 µM | [19] > 100 µM

OCC1C(OCc2ccccc2)C(OCc2ccccc2)C(OCc2ccccc2)CN1Cc1ccccc1 (stereo unspecified)
inactive: [1] 22.6 µM | [2] > 100 µM | [3] 14.3 µM | [4] 88.9 µM | [5] 37.2 µM | [6] 24.6 µM | [7] 18.7 µM | [8] 3.38 µM | [9] 7.62 µM | [10] > 100 µM | [11] > 100 µM | [13] 37.5 µM | [14] 53 µM | [15] 9.64 µM | [16] 26.7 µM | [17] 13 µM | [18] 47.5 µM | [19] 14.2 µM

COc1ccc(C2(O)C(S(=O)(=O)c3ccc(C)cc3)=Cc3ccc(OC)cc32)cc1 (stereo unspecified)
inactive: [1] 69.5 µM | [3] > 100 µM | [4] 32.7 µM | [6] 23.6 µM | [7] > 100 µM | [20] 43.2 µM | [8] 37.4 µM | [9] > 100 µM | [11] 35.6 µM | [12] > 100 µM | [13] > 100 µM | [14] > 100 µM | [16] > 100 µM | [17] 53.8 µM | [19] 35 µM

CC(C)(Cl)C(Br)CCC(C)(Cl)C(Br)CBr (stereo unspecified)
inactive: [1] 30.5 µM | [3] 18.5 µM | [4] 29.1 µM | [5] 34.5 µM | [6] 35.7 µM | [7] 29.8 µM | [20] 18.1 µM | [8] 21.2 µM | [9] 41.2 µM | [10] 38.2 µM | [11] 39.2 µM | [12] 18.1 µM | [13] 18.7 µM | [14] 27.5 µM | [15] 15.8 µM | [16] 31.7 µM | [17] 27.2 µM | [18] 25.1 µM | [19] 17.6 µM

CC(C)=CC(=O)c1[nH]c2ccccc2c1CC(=O)NCCc1c[nH]cn1
inactive: [1] > 100 µM | [2] > 100 µM | [3] > 100 µM | [4] > 100 µM | [5] > 100 µM | [6] > 100 µM | [7] > 100 µM | [20] > 100 µM | [8] > 100 µM | [9] > 100 µM | [10] > 100 µM | [11] > 100 µM | [13] > 100 µM | [14] > 100 µM | [15] > 100 µM | [16] > 100 µM | [17] > 100 µM | [18] > 100 µM | [19] > 100 µM

O=[N+]([O-])c1ccc2[nH]c(-c3ccc(Cl)cc3)nc2c1
inactive: [1] 24.6 µM | [2] 31.1 µM | [3] 16.7 µM | [4] 39 µM | [5] 19.1 µM | [6] 25.5 µM | [7] 20.8 µM | [8] 26.8 µM | [9] 25.4 µM | [10] 21.2 µM | [11] 24 µM | [12] 23.2 µM | [14] 32.7 µM | [15] 29 µM | [16] 21.2 µM | [17] 21.4 µM | [18] 30.8 µM | [19] 18.7 µM

CCOC(=O)NC(=S)NN(C)C1=NCC(C)(C)S1
inactive: [1] > 100 µM | [2] > 100 µM | [3] > 100 µM | [4] > 100 µM | [6] > 100 µM | [7] > 100 µM | [20] > 100 µM | [8] > 100 µM | [9] > 100 µM | [10] > 100 µM | [11] > 100 µM | [12] > 100 µM | [13] > 100 µM | [14] > 100 µM | [15] > 100 µM | [17] > 100 µM | [18] > 100 µM | [19] > 100 µM

Cn1c(=O)c2c(nc(NCCCCl)n2CC(=O)NCCCCl)n(C)c1=O
inactive: [1] > 100 µM | [2] > 100 µM | [3] > 100 µM | [4] > 100 µM | [5] > 100 µM | [6] > 100 µM | [7] > 100 µM | [20] > 100 µM | [8] > 100 µM | [9] > 100 µM | [10] > 100 µM | [11] > 100 µM | [12] > 100 µM | [13] > 100 µM | [14] > 100 µM | [15] > 100 µM | [16] > 100 µM | [17] > 100 µM | [18] > 100 µM

O=c1[nH]cnc2c(C3OC(CO)C(O)C3O)c[nH]c12 (stereo unspecified)
inactive: [1] > 100 µM | [2] > 100 µM | [3] > 100 µM | [4] > 100 µM | [5] > 100 µM | [6] > 100 µM | [7] > 100 µM | [8] > 100 µM | [9] > 100 µM | [10] > 100 µM | [11] > 100 µM | [12] > 100 µM | [13] > 100 µM | [14] > 100 µM | [15] 68.7 µM | [17] > 100 µM | [18] > 100 µM | [19] > 100 µM

NNc1nnc(-c2nnc(NN)o2)o1
inactive: [1] > 10 µM | [2] > 10 µM | [3] > 10 µM | [4] > 10 µM | [5] > 10 µM | [6] > 10 µM | [7] > 10 µM | [8] > 10 µM | [9] > 10 µM | [10] > 10 µM | [12] > 10 µM | [13] > 10 µM | [14] > 10 µM | [15] > 10 µM | [16] > 10 µM | [17] > 10 µM | [18] > 10 µM | [19] > 10 µM

C=C[C@@]1(O)CCCC[C@@H]1CC(Sc1ccccc1)Sc1ccccc1
inactive: [1] 11.1 µM | [2] 14.8 µM | [3] 18.3 µM | [4] 25.4 µM | [5] 19.4 µM | [6] 15.5 µM | [7] 15.9 µM | [20] 16 µM | [8] 67.5 µM | [9] 31.1 µM | [10] 8.59 µM | [11] 16.4 µM | [12] 27.5 µM | [13] 18.8 µM | [16] 19.8 µM | [17] 14.3 µM | [19] 16.7 µM

CC1CCC(O)(C(C)(C(=O)O)c2ccccc2)CC1 (stereo unspecified)
inactive: [1] > 100 µM | [2] 57.4 µM | [4] > 100 µM | [5] 49 µM | [6] 74 µM | [7] 42.2 µM | [20] > 100 µM | [8] > 100 µM | [9] 22 µM | [10] > 100 µM | [13] > 100 µM | [14] > 100 µM | [15] 83.9 µM | [16] > 100 µM | [17] > 100 µM | [18] > 100 µM

CC(C)(C)OC(=O)NCCCCC(NC(=O)OCc1ccccc1)C(N)=O (stereo unspecified)
inactive: [1] > 100 µM | [2] > 100 µM | [3] > 100 µM | [4] > 100 µM | [5] > 100 µM | [6] > 100 µM | [7] > 100 µM | [20] > 100 µM | [8] > 100 µM | [9] > 100 µM | [10] > 100 µM | [11] > 100 µM | [12] > 100 µM | [13] > 100 µM | [14] > 100 µM | [16] > 100 µM | [17] > 100 µM | [18] > 100 µM | [19] > 100 µM

CC1CCCN(CC(O)CN2CCCc3ccccc32)C1 (stereo unspecified)
inactive: [1] > 100 µM | [2] > 100 µM | [3] > 100 µM | [4] > 100 µM | [5] > 100 µM | [6] 56.2 µM | [7] > 100 µM | [20] > 100 µM | [8] > 100 µM | [9] > 100 µM | [10] > 100 µM | [11] > 100 µM | [12] > 100 µM | [13] > 100 µM | [14] > 100 µM | [16] > 100 µM | [17] > 100 µM | [18] > 100 µM | [19] > 100 µM

Cn1c(SCc2ccc(F)cc2)nnc1C12CC3CC(CC(C3)C1)C2
inactive: [1] 56.9 µM | [2] > 100 µM | [3] 17 µM | [4] 24.3 µM | [5] 24.2 µM | [6] 34.8 µM | [7] 36.6 µM | [20] 40.6 µM | [8] 33.5 µM | [9] 13.6 µM | [10] 27.1 µM | [11] 52.1 µM | [12] 20.1 µM | [13] 63.2 µM | [14] 58.7 µM | [15] 25 µM | [16] 28.9 µM | [17] 28.8 µM | [18] 29.4 µM
